According to patent US12600709B2, “Nonpeptide somatostatin type 5 receptor agonists and uses thereof” (Crinetics Pharmaceuticals, Inc., priority 2019, dated 2026):
Like-named read-outs stand apart in the source and are kept apart here.

Experiments:
[1] = target: T1, human somatostatin receptor subtype 2 (Homo sapiens, UniProt P30874); assay: cAMP assay for SST2R (inhibition of cAMP in CHO-K1 cells); format: cell-based; conditions: Table B; inhibition of cAMP via human SST2 receptor; read-out: SST2 potency
T1 construct: expressed in transfected cells
T1 sequence (P30874 whole entry): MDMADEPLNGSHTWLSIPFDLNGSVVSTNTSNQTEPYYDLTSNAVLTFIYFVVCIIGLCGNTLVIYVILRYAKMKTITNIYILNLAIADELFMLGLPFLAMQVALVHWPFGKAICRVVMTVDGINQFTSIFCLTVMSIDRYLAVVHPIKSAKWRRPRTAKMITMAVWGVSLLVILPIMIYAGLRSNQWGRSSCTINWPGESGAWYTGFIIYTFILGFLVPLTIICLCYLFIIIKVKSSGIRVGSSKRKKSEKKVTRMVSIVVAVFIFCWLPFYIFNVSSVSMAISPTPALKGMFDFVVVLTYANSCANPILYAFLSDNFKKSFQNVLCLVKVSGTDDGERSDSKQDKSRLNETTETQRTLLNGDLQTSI
How it was run: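 Agonism read as decrease in NKH477 (1.6 μM)-stimulated cAMP: compounds applied 20 min, 37° C, with 0.2 mM IBMX, to CHO-K1 stably expressing human SSTR2. cAMP quantified in lysates by time-resolved fluorescence (HTRF kit, 1-24 h RT), standard-curve regression, then EC50.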

[2] = target: T2, human somatostatin receptor subtype 5 (Homo sapiens, UniProt P35346); assay: cAMP assay for SST5R (inhibition of cAMP in CHO-K1 cells); format: cell-based; conditions: for EC50: inhibition of cAMP via human SST5 receptor, read-out: SST5 potency; for Fold selectivity for SST5 vs SST2: class symbols, SST5 receptor over SST2 receptor
T2 construct: expressed in transfected cells
T2 sequence (P35346 whole entry): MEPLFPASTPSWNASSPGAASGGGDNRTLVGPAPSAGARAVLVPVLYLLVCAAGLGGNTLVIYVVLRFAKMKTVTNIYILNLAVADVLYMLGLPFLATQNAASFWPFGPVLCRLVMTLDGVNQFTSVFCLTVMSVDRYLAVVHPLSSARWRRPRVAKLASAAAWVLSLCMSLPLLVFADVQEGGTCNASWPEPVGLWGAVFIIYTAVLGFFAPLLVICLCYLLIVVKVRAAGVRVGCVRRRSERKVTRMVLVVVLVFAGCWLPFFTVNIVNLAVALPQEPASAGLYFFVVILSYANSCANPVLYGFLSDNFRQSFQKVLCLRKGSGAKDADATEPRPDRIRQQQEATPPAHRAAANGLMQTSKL
How it was run: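 CHO-K1 cells stably expressing human SSTR5 were treated 20 min at 37 °C with compounds plus 1.6 μM NKH477 in HBSS, 0.5 mM HEPES pH 7.4, 0.1% BSA, 0.2 mM IBMX. Lysate cAMP measured by HTRF against a standard curve; EC50 from cAMP-versus-concentration plots.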

EC50 [1] [nM]	EC50 ([2]; Table A) [nM]	Fold selectivity for SST5 vs SST2 ([2]; Table B)	EC50 ([2]; Table B) [nM]	SMILES
100 to 1000	< 10	+++ (+++=>500)	< 10	COc1cc(-c2c(C(F)(F)F)ncc(C(=O)N[C@@H](C)C3CC3)c2N2CC[C@](C)(N)C2)ccn1 [1-208, 4-[(3S)-3-amino-3-methylpyrrolidin-1-yl]-N-[(1S)-1-cyclopropylethyl]-2′-methoxy-2-(trifluoromethyl)-[3,4′-bipyridine]-5-carboxamide]
10 to 100	< 10	+++ (+++=>500)	< 10	C[C@]1(N)CCN(c2c(C(=O)NC3CCCCC3)cnc(C(F)(F)F)c2-c2cc(F)cc(F)c2)C1 [1-210, 4-[(3S)-3-amino-3-methylpyrrolidin-1-yl]-N-cyclohexyl-5-(3,5-difluorophenyl)-6-(trifluoromethyl)pyridine-3-carboxamide]
100 to 1000	< 10	+++ (+++=>500)	< 10	C[C@H](NC(=O)c1cnc(C(F)(F)F)c(-c2cc(F)cc(F)c2)c1N1CC[C@H](N)C1)C(F)(F)F [1-212, 4-[(3S)-3-aminopyrrolidin-1-yl]-5-(3,5-difluorophenyl)-6-(trifluoromethyl)-N-[(2S)-1,1,1-trifluoropropan-2-yl]pyridine-3-carboxamide]
100 to 1000	< 10	+++ (+++=>500)	< 10	N[C@H]1CCN(c2c(C(=O)NC3CCCCC3)cnc(C(F)(F)F)c2-c2cc(F)cc(F)c2)C1 [1-213, 4-[(3S)-3-aminopyrrolidin-1-yl]-N-cyclohexyl-5-(3,5-difluorophenyl)-6-(trifluoromethyl)pyridine-3-carboxamide]
> 1000	< 10	+++ (+++=>500)	< 10	N[C@H]1CCN(c2c(C(=O)NC3CCC(F)(F)CC3)cnc(C(F)(F)F)c2-c2cc(F)cc(F)c2)C1 [1-214, 4-[(3S)-3-aminopyrrolidin-1-yl]-N-(4,4-difluorocyclohexyl)-5-(3,5-difluorophenyl)-6-(trifluoromethyl)pyridine-3-carboxamide]
100 to 1000	< 10	+++ (+++=>500)	< 10	C[C@H](NC(=O)c1cnc(C(F)(F)F)c(-c2cc(Cl)cc(Cl)c2)c1N1CC[C@H](N)C1)C1CC1 [1-215, 4-[(3S)-3-aminopyrrolidin-1-yl]-N-[(1S)-1-cyclopropylethyl]-5-(3,5-dichlorophenyl)-6-(trifluoromethyl)pyridine-3-carboxamide]
> 1000	< 10	+++ (+++=>500)	< 10	N[C@H]1CCN(c2c(C(=O)NC34CC(F)(C3)C4)cnc(C(F)(F)F)c2-c2cc(F)cc(F)c2)C1 [1-216, 4-[(3S)-3-aminopyrrolidin-1-yl]-5-(3,5-difluorophenyl)-N-{3-fluorobicyclo[1.1.1]pentan-1-yl}-6-(trifluoromethyl)pyridine-3-carboxamide]
100 to 1000	< 10	+++ (+++=>500)	< 10	C[C@]1(N)CCN(c2c(C(=O)NC34CC(F)(C3)C4)cnc(C(F)(F)F)c2-c2cc(F)cc(F)c2)C1 [1-217, 4-[(3S)-3-amino-3-methylpyrrolidin-1-yl]-5-(3,5-difluorophenyl)-N-{3-fluorobicyclo[1.1.1]pentan-1-yl}-6-(trifluoromethyl)pyridine-3-carboxamide]
100 to 1000	< 10	++ (++=100 to 499)	< 10	CC(NC(=O)c1cnc(C#N)c(-c2cc(F)cc(F)c2)c1N1CC[C@H](N)C1)C(F)(F)F (stereo partly drawn) [1-226, 4-[(3S)-3-aminopyrrolidin-1-yl]-6-cyano-5-(3,5-difluorophenyl)-N-(1,1,1-trifluoropropan-2-yl)pyridine-3-carboxamide]
10 to 100	< 10	+++ (+++=>500)	< 10	COc1ncc(C(=O)N[C@@H](C)C(F)(F)F)c(N2CC[C@](C)(N)C2)c1-c1cc(F)cc(Cl)c1 [1-228, 4-[(3S)-3-amino-3-methylpyrrolidin-1-yl]-5-(3-chloro-5-fluorophenyl)-6-methoxy-N-[(2S)-1,1,1-trifluoropropan-2-yl]pyridine-3-carboxamide]
10 to 100	< 10	+++ (+++=>500)	< 10	COc1ncc(C(=O)N[C@@H](C)C2CC2)c(N2CC[C@](C)(N)C2)c1-c1cc(F)cc(Cl)c1 [1-229, 4-[(3S)-3-amino-3-methylpyrrolidin-1-yl]-5-(3-chloro-5-fluorophenyl)-N-[(1S)-1-cyclopropylethyl]-6-methoxypyridine-3-carboxamide]
100 to 1000	< 10	++ (++=100 to 499)	< 10	Cc1ncc(C(=O)N[C@@H](C)C(F)(F)F)c(N2CC[C@H](N)C2)c1-c1cc(F)cc(F)c1 [1-230, 4-[(3S)-3-aminopyrrolidin-1-yl]-5-(3,5-difluorophenyl)-6-methyl-N-[(2S)-1,1,1-trifluoropropan-2-yl]pyridine-3-carboxamide]
100 to 1000	< 10	+++ (+++=>500)	< 10	Cc1ncc(C(=O)N[C@@H](C)C(F)(F)F)c(N2CC[C@H](N)C2)c1-c1cc(F)cc(OC(F)F)c1 [1-231, 4-[(3S)-3-aminopyrrolidin-1-yl]-5-[3-(difluoromethoxy)-5-fluorophenyl]-6-methyl-N-[(2S)-1,1,1-trifluoropropan-2-yl]pyridine-3-carboxamide]
> 1000	< 10	+++ (+++=>500)	< 10	Cc1ncc(C(=O)N[C@@H](C)C(F)(F)F)c(N2CC[C@H](N)C2)c1-c1cccc(OC(F)F)c1 [1-232, 4-[(3S)-3-aminopyrrolidin-1-yl]-5-[3-(difluoromethoxy)phenyl]-6-methyl-N-[(2S)-1,1,1-trifluoropropan-2-yl]pyridine-3-carboxamide]
> 1000	< 10	+++ (+++=>500)	< 10	Cc1ncc(C(=O)NC2CCC(F)(F)CC2)c(N2CC[C@H](N)C2)c1-c1cc(F)cc(F)c1 [1-233, 4-[(3S)-3-aminopyrrolidin-1-yl]-N-(4,4-difluorocyclohexyl)-5-(3,5-difluorophenyl)-6-methylpyridine-3-carboxamide]
100 to 1000	< 10	+++ (+++=>500)	< 10	C[C@]1(N)CCN(c2c(C(=O)NC34CC(F)(C3)C4)cnc(C#N)c2-c2cc(F)cc(F)c2)C1 [1-234, 4-[(3S)-3-amino-3-methylpyrrolidin-1-yl]-6-cyano-5-(3,5-difluorophenyl)-N-{3-fluorobicyclo[1.1.1]pentan-1-yl}pyridine-3-carboxamide]
100 to 1000	< 10	+++ (+++=>500)	< 10	COc1ncc(C(=O)NCc2ccon2)c(N2CC[C@](C)(N)C2)c1-c1cc(F)cc(Cl)c1 [1-238, 4-[(3S)-3-amino-3-methylpyrrolidin-1-yl]-5-(3-chloro-5-fluorophenyl)-6-methoxy-N-[(1,2-oxazol-3-yl)methyl]pyridine-3-carboxamide]
> 1000	< 10	+++ (+++=>500)	< 10	COc1ncc(C(=O)NCc2ccon2)c(N2CC[C@](C)(N)C2)c1-c1cc(F)cc(OC(F)F)c1 [1-239, 4-[(3S)-3-amino-3-methylpyrrolidin-1-yl]-5-[3-(difluoromethoxy)-5-fluorophenyl]-6-methoxy-N-[(1,2-oxazol-3-yl)methyl]pyridine-3-carboxamide]
100 to 1000	< 10	+++ (+++=>500)	< 10	COc1ncc(C(=O)N[C@@H](C)c2ccccn2)c(N2CC[C@](C)(N)C2)c1-c1cc(F)cc(Cl)c1 [1-240, 4-[(3S)-3-amino-3-methylpyrrolidin-1-yl]-5-(3-chloro-5-fluorophenyl)-6-methoxy-N-[(1S)-1-(pyridin-2-yl)ethyl]pyridine-3-carboxamide]
> 1000	< 10	+++ (+++=>500)	< 10	Cc1ncc(C(=O)NCc2ccon2)c(N2CC[C@](C)(N)C2)c1-c1cc(F)cc(Cl)c1 [1-242, 4-[(3S)-3-amino-3-methylpyrrolidin-1-yl]-5-(3-chloro-5-fluorophenyl)-6-methyl-N-[(1,2-oxazol-3-yl)methyl]pyridine-3-carboxamide]
100 to 1000	< 10	+++ (+++=>500)	< 10	C[C@]1(N)CCN(c2c(C(=O)NCc3ccon3)cnc(C#N)c2-c2cc(F)cc(Cl)c2)C1 [1-244, 4-[(3S)-3-amino-3-methylpyrrolidin-1-yl]-5-(3-chloro-5-fluorophenyl)-6-cyano-N-[(1,2-oxazol-3-yl)methyl]pyridine-3-carboxamide]
> 1000	< 10	+++ (+++=>500)	< 10	C[C@H](NC(=O)c1cnc(C#N)c(-c2cc(F)cc(Cl)c2)c1N1CC[C@](C)(N)C1)c1ccccn1 [1-245, 4-[(3S)-3-amino-3-methylpyrrolidin-1-yl]-5-(3-chloro-5-fluorophenyl)-6-cyano-N-[(1 S)-1-(pyridin-2-yl)ethyl]pyridine-3-carboxamide]
